Reference: patent US6242199A, “Assays for growth hormone secretagogue receptors” (Merck & Co., Inc., priority 1998, dated 2001)

Tests used:
[1] = system: swine Type II GHSR; assay: Aequorin bioluminescence assay in Xenopus oocytes, swine Type II GHSR; assay type: cell-based; conditions: swine Type II-derived cRNA truncated in TM-6
Protocol: (§1) Xenopus laevis oocytes were isolated and injected using standard methods previously described by Arena, et. al. 1991, Mol. Pharmacol. 40, 368-374, which is hereby incorporated by reference. Adult female Xenopus Laevis frogs (purchased from Xenopus One, Ann Arbor, Mich.) were anesthetized with 0.17% tricaine methanesulfonate and the ovaries were surgically removed and placed in a 60 mm culture dish (Falcon) containing OR-2 medium without calcium (82.5 mM NaCl, 2 mM KCl, 2.5 mM sodium pyruvate, 1 mM MgCl2, 100 μ/ml penicillin, 1 mg/ml streptomycin, 5 mM HEPES, pH=7.5; ND-96 from Specialty Media, NJ). Ovarian lobes were broken open, rinsed several times, and oocytes were released from their sacs by collagenase A digestion (Boehringer-Mannheim; 0.2% for 2-3 hours at 18° C.) in calcium-free OR-2. […]
(§2) The ABA requires injection of library pool cRNA (25 ng/egg for pool sizes of 500 to 10,000) with aequorin cRNA (2 ng/egg) supplemented with the G-protein alpha subunit Gα11 (2 ng/egg). […] Polymerase chain reaction (PCR) was utilized to generate a DNA fragment corresponding to the open reading frame (ORF) of the aequorin cDNA with an optimized Kosak translational initiation sequence (Inouye, S. et. al., 1985, Proc. Natl. Acad. Sci. USA 82:3154-3158). […]

[2] = system: swine growth hormone secretagogue receptor (GHSR); assay: Aequorin bioluminescence assay in Xenopus oocytes injected with swine pituitary mRNA / cDNA library pool or clone cRNA; assay type: cell-based; conditions: 1 μM
Protocol: as §1, §2

bioluminescence response (in words) ([2]; clones 7-3 and 28-18): positive bioluminescence response
bioluminescent signal (in words) ([2]; pool P541): positive bioluminescent signal
SMILES: CC(C)(N)C(=O)N[C@H](COCc1ccccc1)C(=O)N1CCC2(CC1)CN(S(C)(=O)=O)c1ccccc12 [Compound A, (N-[1(R)-[1,2-dihydro-1-methanesulfonlylspiro[3H-indole-3,4'-piperidin]-1'-yl)carbonyl]-2-(phenylmethyloxy)-ethyl]-2-amino-2-methyl-propanamide]
response (in words) [1]: failed to give a response
